Measured values taken from ChEMBL document CHEMBL3526122, “Identification of UDP-glucuronosyltransferases responsible for the glucuronidation of darexaban, an oral factor Xa inhibitor, in human liver and intestine” (Drug Metab Dispos, 2012).

Experiments:
[1] = Drug metabolism in human intestinal microsomes assessed as glucuronidation per mg of protein after 5 mins by Michaelis-Menten plot analysis in presence of UDPGA; type: ADME, Intestine, Microsome
[2] = biological target: T1, UDP-glucuronosyltransferase 1A7 (Homo sapiens, UniProt Q9HAW7); test: Activity of human recombinant UGT1A7 expressed in baculovirus-infected insect cells assessed as enzyme-mediated glucuronidation per mg of protein after 10 mins in presence of UDPGA; type: ADME
T1 sequence (Q9HAW7 whole entry): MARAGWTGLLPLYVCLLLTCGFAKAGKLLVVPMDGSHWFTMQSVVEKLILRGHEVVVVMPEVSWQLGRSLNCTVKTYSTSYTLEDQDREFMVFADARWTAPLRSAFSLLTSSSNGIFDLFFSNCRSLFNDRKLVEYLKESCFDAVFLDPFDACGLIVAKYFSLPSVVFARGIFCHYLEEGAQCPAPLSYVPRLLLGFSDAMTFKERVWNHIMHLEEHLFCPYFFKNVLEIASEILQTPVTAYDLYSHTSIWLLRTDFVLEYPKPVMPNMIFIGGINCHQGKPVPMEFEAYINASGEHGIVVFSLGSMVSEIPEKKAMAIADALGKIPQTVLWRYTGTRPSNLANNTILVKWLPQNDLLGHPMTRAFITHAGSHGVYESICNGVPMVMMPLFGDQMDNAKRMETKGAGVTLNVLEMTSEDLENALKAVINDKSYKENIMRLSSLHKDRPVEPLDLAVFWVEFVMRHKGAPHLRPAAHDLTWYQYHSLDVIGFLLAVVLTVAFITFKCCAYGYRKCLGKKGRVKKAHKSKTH

[3] = biological target: T2, UDP-glucuronosyltransferase 2B7 (Homo sapiens, UniProt P16662); test: Activity of human recombinant UGT2B7 expressed in baculovirus-infected insect cells assessed as enzyme-mediated glucuronidation per mg of protein after 10 mins in presence of UDPGA; type: ADME
T2 sequence (P16662 whole entry): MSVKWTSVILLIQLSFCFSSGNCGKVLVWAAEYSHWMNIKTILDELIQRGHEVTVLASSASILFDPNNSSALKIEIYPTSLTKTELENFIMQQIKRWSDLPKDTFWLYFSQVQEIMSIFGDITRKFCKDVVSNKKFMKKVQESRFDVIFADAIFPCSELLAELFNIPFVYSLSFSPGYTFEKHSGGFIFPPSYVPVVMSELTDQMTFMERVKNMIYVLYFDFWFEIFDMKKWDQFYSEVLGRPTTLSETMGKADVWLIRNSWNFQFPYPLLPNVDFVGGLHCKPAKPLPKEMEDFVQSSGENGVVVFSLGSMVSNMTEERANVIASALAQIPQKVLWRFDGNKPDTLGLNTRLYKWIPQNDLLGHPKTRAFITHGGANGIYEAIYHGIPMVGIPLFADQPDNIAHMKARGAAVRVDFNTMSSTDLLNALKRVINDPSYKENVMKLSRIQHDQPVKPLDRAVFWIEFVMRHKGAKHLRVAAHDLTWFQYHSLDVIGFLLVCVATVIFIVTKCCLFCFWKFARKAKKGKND

[4] = biological target: T3, UDP-glucuronosyltransferase 2B15 (Homo sapiens, UniProt P54855); test: Activity of human recombinant UGT2B15 expressed in baculovirus-infected insect cells assessed as enzyme-mediated glucuronidation per mg of protein after 10 mins in presence of UDPGA; type: ADME
T3 sequence (P54855 whole entry): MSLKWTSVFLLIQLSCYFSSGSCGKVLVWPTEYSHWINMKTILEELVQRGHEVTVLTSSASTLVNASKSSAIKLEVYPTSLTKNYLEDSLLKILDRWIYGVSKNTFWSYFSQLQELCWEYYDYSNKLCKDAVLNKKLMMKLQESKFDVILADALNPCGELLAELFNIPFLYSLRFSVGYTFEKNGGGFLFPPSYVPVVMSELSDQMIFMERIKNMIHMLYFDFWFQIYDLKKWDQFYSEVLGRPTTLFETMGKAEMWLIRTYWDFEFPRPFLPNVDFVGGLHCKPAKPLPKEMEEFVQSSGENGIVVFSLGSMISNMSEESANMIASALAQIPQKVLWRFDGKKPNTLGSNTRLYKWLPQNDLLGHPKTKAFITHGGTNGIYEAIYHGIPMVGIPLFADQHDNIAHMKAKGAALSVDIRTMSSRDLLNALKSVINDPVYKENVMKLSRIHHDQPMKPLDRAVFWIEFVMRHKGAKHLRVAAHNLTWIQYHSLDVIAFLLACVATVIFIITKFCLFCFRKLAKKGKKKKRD

Liver microsome [5] = test: Drug metabolism in human liver microsomes assessed as glucuronidation per mg of protein after 10 mins by Michaelis-Menten plot analysis in presence of UDPGA and absence of fatty acid free BSA; type: ADME
Liver microsome [6] = test: Drug metabolism in human liver microsomes assessed as glucuronidation per mg of protein after 10 mins by Michaelis-Menten plot analysis in presence of UDPGA and 2% fatty acid free BSA; type: ADME
Liver microsome [7] = test: Unbound intrinsic clearance in human liver microsomes assessed per mg of protein after 10 mins in presence of UDPGA and absence of fatty acid free BSA; type: ADME
Liver microsome [8] = test: Unbound intrinsic clearance in human liver microsomes assessed per mg of protein after 10 mins in presence of UDPGA and 2% fatty acid free BSA; type: ADME
[9] = Drug metabolism in human intestinal microsomes assessed as glucuronidation at 30 uM after 5 mins by LC-MS/MS analysis relative to vehicle-treated control in presence of beta-estradiol and UDPGA; type: ADME, Intestine, Microsome; settings: with beta-estradiol, read-out: Drug metabolism
[10] = Ratio of Km for drug metabolism in human liver microsomes to Km for human recombinant UGT-mediated drug metabolism; type: ADME; settings: recombinant enzyme
[11] = Fraction unbound in human liver microsomes at 1 to 250 uM after 10 mins by ultrafiltration method in absence of fatty acid free BSA; type: ADME
[12] = Fraction unbound in human liver microsomes at 1 to 250 uM after 10 mins by ultrafiltration method in presence of 0.5% fatty acid free BSA; type: ADME
[13] = Drug metabolism in human liver microsomes assessed as glucuronidation after 10 mins by Michaelis-Menten plot analysis in presence of UDPGA and absence of fatty acid free BSA; type: ADME; settings: read-out: Km(unbound)
[14] = Drug metabolism in human liver microsomes assessed as glucuronidation after 10 mins by Michaelis-Menten plot analysis in presence of UDPGA and 0.5% fatty acid free BSA; type: ADME; settings: read-out: Km(unbound)

Vmax [1]: 4.53 nmol/min/mg | Drug metabolism [2]: 0.251 nmol/min/mg | Drug metabolism [3]: < 0.01 nmol/min/mg | Drug metabolism [4]: < 0.01 nmol/min/mg | Vmax (Liver microsome [5]): 3.75 nmol/min/mg | Vmax (Liver microsome [6]): 3.14 nmol/min/mg | CL free (Liver microsome [7]): 17.4 µL/min/mg | CL free (Liver microsome [8]): 178 µL/min/mg | activity at 5 min, 30 µM [9]: 22.6% | Ratio [10]: 4.2 | fraction unbound at 10 min, up to 250 µM [11]: 0.873 | fraction unbound at 10 min, up to 250 µM [12]: 0.517 | Km at 10 min [13]: 216 µM | Km at 10 min [14]: 17.7 µM
SMILES: COc1ccc(C(=O)Nc2cccc(O)c2NC(=O)c2ccc(N3CCCN(C)CC3)cc2)cc1.O=C(O)CCC(=O)O
